Values of other authors in patent US20030228635A1, “Cell proliferation assays and methods” (Renovar, Inc., priority 2002, published 2003).

Tested on: cells
Details: cells labelled with CFSE; Lyons and Parish 1994

carboxy-fluorescein diacetate, succinimidyl ester [CFSE]
effect on cellular function: does not adversely affect cellular function
